# The source made the active and inactive calls. The calls are words filed in the database; no cut-off is given here.
# Tests used:
# [1] = test system: HT-22; assay: Anti-ferroptotic activity against RSL3-induced ferroptosis in […] HT-22 cells assessed as cell viability measured after 24 hrs by MTT assay; format: functional, cell-based; details: Mus musculus, HT-22, 24 h
# [2] = Cytotoxicity against […] HT-22 cells assessed as reduction in cell viability measured after 24 hrs by MTT assay; format: toxicity, cell-based; details: mouse
# [3] = Antioxidant activity assessed as DPPH radical scavenging activity at 100 uM measured for 30 mins by microplate spectrophotometric analysis; format: functional
# [4] = test system: HT-22; assay: Anti-ferroptotic activity against RSL3-induced ferroptosis in […] HT-22 cells assessed as cell viability at 1 uM measured after 24 hrs by MTT assay; format: functional; details: read-out: Activity
# [5] = Metal chelating activity assessed as Fe2+-compound complex formation by UV-visible spectrophotometry
# [6] = test system: HT-22; assay: Reduction in lipid ROS accumulation in RSL-3 treated […] HT-22 cells assessed as fluorescence intensity incubated for 4 hrs by C11-BODIPY staining based flow cytometry analysis; format: functional, cell-based; details: Mus musculus, dose 25-100 nM
# [7] = test system: HT-22; assay: Reduction in cytosolic ROS accumulation in RSL-3 treated […] HT-22 cells assessed as fluorescence intensity incubated for 4 hrs by carboxy-H2DCFDA staining based flow cytometry analysis; format: functional, cell-based; details: Mus musculus, dose 25-100 nM
# [8] = test system: HT-22; assay: Reversal of RSL-3 induced PTGS2 mRNA expression in […] HT-22 cells incubated for 4 hrs by […] analysis; format: functional, cell-based; details: Mus musculus, dose 25-100 nM
Compound,EC50 [1],CC50 at 24 h [2],Activity [3],viability at 1 µM [4],further results
C=CCc1c(O)c2c(c(O)c1OC)[C@@]1(C)CCC(C)=C(C)C1=CC2=O,308 nM,> 40000 nM,Active,–,–
CC1=C(C)C2=CC(=O)c3c(O)c4c(c(O)c3[C@@]2(C)CC1=O)OC[C@H]4C,–,> 40000 nM,Active,< 50%,–
CCOC(=O)c1ccc(NC2CCCCC2)c(N)c1,81.2 nM,–,–,–,–
CC1=C(C)C2=CC(=O)c3c(c(O)c4oc(C)cc4c3O)[C@@]2(C)CC1,526 nM,> 40000 nM,Active,–,–
CC1=C(C)C2=CC(=O)[C@@]34O[C@@]3(C(=O)c3oc(C)cc3C4=O)[C@@]2(C)CC1,–,> 40000 nM,–,< 50%,–
C[C@@H]1COc2c(O)c3c(c(O)c21)C(=O)C=C1[C@]3(C)CC[C@]2(C)O[C@]12C,406 nM,> 40000 nM,Active,–,–
Cc1coc2c(O)c3c(c(O)c12)C(=O)C=C1[C@]3(C)CC[C@]2(C)O[C@]12C,348 nM,> 40000 nM,Active,–,–
C[C@@H]1COc2c(O)c3c(c(O)c21)C(=O)CC1C(C)(C)CCC[C@]31C (some centres not stated),–,> 40000 nM,–,< 50%,–
CC1=C(C)C2=CC(=O)c3c(O)c4c(c(O)c3[C@@]2(C)CC1)OC[C@H]4C,76.2 nM,> 40000 nM,Active,–,–
CC(=O)N(O)CCCCCNC(=O)CCC(=O)N(O)CCCCCNC(=O)CCC(=O)N(O)CCCCCN,–,–,–,–,Activity [5]: Active
CC1=C(C)C2=CC(=O)[C@@]34O[C@@]3(C(=O)c3occ(C)c3C4=O)[C@@]2(C)CC1,–,> 40000 nM,–,< 50%,–
CC1=C(C)C2=CC(=O)c3c(c(O)c4occ(C)c4c3O)[C@@]2(C)CC1,56.1 nM,> 40000 nM,Active,–,Activity [6]: Active; Activity [7]: Active; Activity [8]: Active
